From US20180296542A1, “IMINOSUGARS FOR IMPROVING BONE MINERAL DENSITY IN BONE DISEASE” (Saint Louis University, priority 2015, published 2018)
Where “and” joins values, the source holds several entries; their conditions need not be identical. Equal values may be shown once. Entries after “also recorded” stand apart in the source; their conditions may differ.

Tests used:
[1] = tested on: TNSALP-null (Akp2^−/−) mice, in vivo model of infantile HPP (wild-type, heterozygous, homozygous); assay: MicroCT bone mineral density of femur cortical bone after one month of Miglustat (Example 1); settings: for Mean/Density [mg HA/ccm] of TV (Apparent) (BMD), individual mice: femur diaphysis cortical bone, one value per mouse
Method: -null (Akp2^-/-) mice served as an in vivo model of infantile HPP to analyze the effects of Miglustat as a treatment for HPP through BMD measurements. […] Resembling patients with HPP, elevated substrate concentrations of PEA, PPi, and PLP were found in urine samples from knock-out mice. […] All experiments were conducted with the highest standards of humane animal care at Saint Louis University under an approved IACUC protocol. Mice were genotyped as wild-type, heterozygous, or homozygous through DNA extraction, polymerase chain reaction (PCR), and gel electrophoresis. After DNA was extracted from an ear tissue sample, PCR was used to generate copies of the DNA for gel electrophoresis (2% agarose and Tris-Acetate-EDTA (TAE) buffer). The following primers were used: [NT] ID NO:1), [NT] ID NO:2), [NT] ID NO:3, wild-type allele: 160 bp, mutant allele: 195 bp). At the age of one month, mice were administered 100 μL injections of phosphate-buffered saline (PBS) with 0 mg/kg, 400 mg/kg, or 1200 mg/kg of Miglustat (250 mg/mL) to the peritoneal cavity for gradual diffusion of the drug. Mice were massed each day to adjust Miglustat dosages to body weight. Intraperitoneal injections (IP) continued daily for one month before mice were euthanized with CO2 at the age of two months. Mice were on a Pyridoxine Supplement Diet (“Vitamin B6 Diet”) to prevent seizures. […] (Systems EngineeringTM) was provided every alternating day to prevent dehydration. Urine samples were collected once a week and blood samples were collected from cheek tissue at the beginning and end of treatment. Full-body ventral and side-view x-rays were taken after euthanizing the mice. The left anatomical legs were dissected to obtain the femoral bones. Femurs were then frozen before being placed in 10% formalin the day prior to microCT scanning. Four bones were inserted into a gel cast (2.5% agarose and TAE buffer) at a time and covered with 2.5% agarose and TAE buffer to create gel capsules that were placed in sample tubes (diameter: 11.5 mm, height: 75 mm) for microCT scanning Cortical bone scans (voxel size: 12 μm) were performed at the diaphysis (femoral shaft) using a SCANCO μCT 35 system (SCANCO Medical; Brü[…], Switzerland). MicroCT scans were analyzed using SCANCO Medical microCT software to produce three dimensional reconstructions of the bones and determine bone mineral density (BMD) as the mean/density [mg HA/ccm] of total volume (TV) (Apparent). The total length of each bone was measured as the distance from the greater trochanter to the distal end. Only the middle 20% of each femur was accounted for during cortical bone analysis. Statistical analysis included calculating the average mean/density [mg HA/ccm] of TV (Apparent) and standard error for each treatment group to determine the estimated standard deviation of the statistics. Standard deviation and standard error were not calculated for homozygous mice due to count values below three. Full-body ventral and side x-rays were taken and microCT scans were performed on the femurs of each mouse. The bone mineral densities of the femurs were recorded in units of hydroxyapatite density as the mean/density [mg HA/ccm] of TV (apparent). The average bone mineral densities (average mean/density [mg HA/ccm] of TV (apparent) were then calculated for each treatment group. Statistical analysis, including standard deviation and standard error, was only performed for the wild-types and heterozygotes due to insufficient data for the homozygous mice. A minimum of three mice were required for statistical analysis.

[2] = tested on: TNSALP-null (Akp2^−/−) mice (WT, KO); assay: MicroCT of trabecular bone in the lumbar vertebrae (Example 2); type: in vivo
Method: TNSALP-null (Akp2^−/−) mice served as an in vivo model of bone disease to analyze the effects of the iminosugar, Miglustat.
Mice were obtained, bred and genotyped as described above. Five mice of each genotype (Wild-type (WT), heterozygous (Het), and homozygous (KO)) were included in each treatment group (i.p. administration of PBS, 400 mg/kg Miglustat, and 1200 mg/kg Miglustat as described above). A total of 44 mice were analyzed (1 Akp2^−/− homozygous mouse was omitted in the PBS group). Mice were scanned using microCT and analyzed as described above. Cortical bone in the middle 20% of bone length from trochanter to distal condyles in the femur was scanned and cortical thickness and bone mineral density were obtained. Cortical thickness (Ct.Th, μm) was used as an indication of average thickness of cortical bone. Trabecular bone of the final 625 μm before the femoral growth plate was scanned.
In addition to microCT analysis of femurs, microCT analysis was performed on trabecular bone in the lumbar vertebrae. […] Bone volume fraction of vertebrae is the ratio of the segmented bone volume to the total volume of the region of interest.
As depicted in FIG. 30, trabecular thickness (Tb.Th, mm) increased at 400 mg/kg of Miglustat. The profile of trabecular thickness in spine without treatment is different than femoral trabecular thickness. Trabecular thickness is the mean thickness or trabeculae assessed using direct 3D methods described above.
The profile of trabecular separation in spine is different than in femoral. Trabecular separation is the mean distance between trabeculae assessed using direct 3D methods described above.
The profile and baseline number of trabeculae in spine was different than in femoral. Trabecular number is the measure of the average number of trabeculae per unit length.
As depicted in FIG. 33, structure model index decreased in homozygote mice treated with Miglustat. […] As discussed previously, SMI is an indicator of the structure of the trabeculae. SMI will be zero for parallel plates and 3 for cylindrical rods.
As depicted in FIG. 34, the connectivity density increased after treatment of homozygotes with high doses of Miglustat. As described above, connectivity density is a measure of the degree of connectivity of trabeculae normalized by total volume.
As depicted in FIG. 35, the degree of anisotropy increased with Miglustat meaning that treatment affected the orientation of trabeculae in the bone. Degree of anisotropy defines the direction and magnitude of the preferred orientation of trabeculae and uses the ratio between the maximum and minimum radii of the mean intercept length ellipsoid.

[3] = homozygous mice, Miglustat 400 mg/kg

CCCCN1C[C@H](O)[C@@H](O)[C@H](O)[C@H]1CO [Miglustat, (2R,3R,4R,5S)-1-butyl-2-(hydroxymethyl)piperidine-3,4,5-triol]
Average BMD with Miglustat dosage versus PBS groups (in words) ([1]; across genotypes, except wild-type mice at 1200 mg/kg, one month of treatment, 1200 mg/kg): higher average BMDs; also recorded: BMD increased with Miglustat dosage; also recorded: higher average BMD values | Average BMD versus PBS heterozygotes (in words) ([1]; heterozygous mice, Miglustat 400 mg/kg): slight improvement; also recorded: higher average BMD value | Mean/Density [mg HA/ccm] of TV (Apparent) (BMD), individual mice ([1]; heterozygous mice, Miglustat 400 mg/kg IP daily for one month): 983.17 mg HA/ccm and 937.07 mg HA/ccm and 968.62 mg HA/ccm | Average Mean/Density [mg HA/ccm] of TV (Apparent) (average BMD) ([1]; heterozygous mice, Miglustat 400 mg/kg, n=3, ± standard error): 962.95±13.61 mg HA/ccm and 962.95 mg HA/ccm | Average BMD versus PBS heterozygotes and PBS wild-types (in words) ([1]; heterozygous mice, Miglustat 1200 mg/kg): even greater improvement; also recorded: match or even surpass; also recorded: matched and surpassed | Mean/Density [mg HA/ccm] of TV (Apparent) (BMD), individual mice ([1]; heterozygous mice, Miglustat 1200 mg/kg IP daily for one month): 980.88 mg HA/ccm and 984.82 mg HA/ccm and 979.78 mg HA/ccm and 1006.65 mg HA/ccm | Average Mean/Density [mg HA/ccm] of TV (Apparent) (average BMD) ([1]; heterozygous mice, Miglustat 1200 mg/kg, n=4, ± standard error): 988.03±6.30 mg HA/ccm and 988.03 mg HA/ccm | Differences in mineralization in microCT scans between treatments ([1]; heterozygous mice, PBS vs 400 vs 1200 mg/kg Miglustat): not discernable | Mean/Density [mg HA/ccm] of TV (Apparent) (BMD), individual mice ([1]; homozygous (Akp2^−/−) mice, Miglustat 400 mg/kg IP daily for one month): 881.08 mg HA/ccm and 1054.98 mg HA/ccm | Average Mean/Density [mg HA/ccm] of TV (Apparent) (average BMD) ([1]; homozygous (Akp2^−/−) mice, Miglustat 400 mg/kg, n=2): 968.03 mg HA/ccm | Average BMD versus knockouts on PBS (in words) [1, 3]: substantial difference; also recorded: higher average BMD | Cortical bone mineralization at the diaphysis in microCT scans [1, 3]: improper cortical bone mineralization | Average BMD versus other treatment groups (in words) ([1]; wild-type mice, Miglustat 400 mg/kg): greater; also recorded: increased; also recorded: highest average BMD | Mean/Density [mg HA/ccm] of TV (Apparent) (BMD), individual mice ([1]; wild-type mice, Miglustat 400 mg/kg IP daily for one month): 1000.00 mg HA/ccm and 990.58 mg HA/ccm and 991.31 mg HA/ccm and 1004.30 mg HA/ccm and 995.88 mg HA/ccm | Average Mean/Density [mg HA/ccm] of TV (Apparent) (average BMD) ([1]; wild-type mice, Miglustat 400 mg/kg, n=5, ± standard error): 996.41±2.60 mg HA/ccm and 996.41 mg HA/ccm | Average BMD versus PBS wild-type group (in words) ([1]; wild-type mice, Miglustat 1200 mg/kg): no change | Mean/Density [mg HA/ccm] of TV (Apparent) (BMD), individual mice ([1]; wild-type mice, Miglustat 1200 mg/kg IP daily for one month): 973.20 mg HA/ccm and 985.09 mg HA/ccm and 969.63 mg HA/ccm and 967.00 mg HA/ccm | Average Mean/Density [mg HA/ccm] of TV (Apparent) (average BMD) ([1]; wild-type mice, Miglustat 1200 mg/kg, n=4, ± standard error): 974.48±3.63 mg HA/ccm and 974.48 mg HA/ccm | Trabecular thickness (Tb.Th), lumbar vertebrae ([2]; 400 mg/kg, FIG. 30): increased | Trabecular separation (Tb.Sp), lumbar vertebrae ([2]; FIG. 31): increased proportional to dose | Trabecular number (Tb.N), lumbar vertebrae ([2]; FIG. 32): did not change significantly | Degree of anisotropy (DA), lumbar vertebrae ([2]; FIG. 35): increased | Structure model index (SMI), lumbar vertebrae ([2]; homozygote mice, FIG. 33): decreased | Connectivity density (Conn. D), lumbar vertebrae ([2]; homozygotes, high doses, FIG. 34): increased | Overall bone volume (bone volume fraction), lumbar vertebrae ([2]; homozygotes, FIG. 29): not significantly increased
